Values quoted from earlier work in US5216013A, “Aralkyl-N-terminal cycloalkoxy-C terminal amino hydroxy β-amino acid derivatives” (G. D. Searle & Co., priority 1992, dated 1993).
Square brackets hold non-standard residues; d marks the D form. Peptide text beside a SMILES is read from it. * marks the point of attachment. Sta = CC(C)C[C@H](N)[C@@H](O)CC(=O)O; Isovaleryl = CC(C)CC(=O)*

Key:
hog renin = conditions: after the injection of hog renin into nephrectomized rats

CC(C)CC(=O)N[C@H](C(=O)N[C@H](C(=O)N[C@@H](CC(C)C)[C@@H](O)CC(=O)N[C@@H](C)C(=O)N[C@@H](CC(C)C)[C@@H](O)CC(=O)O)C(C)C)C(C)C [pepstatin] (Isovaleryl-VV[Sta]A[Sta]-OH)
blood pressure (hog renin): reduce blood pressure in vivo
inhibition of pepsin (in words) (pepsin): inhibitor
inhibition of cathepsin D (in words) (cathepsin D): inhibitor
inhibition of renin (in words) (renin): inhibitor
